Measurements taken from US10722514B2 (FLX Bio, Inc., priority 2017, dated 2020).
Structures can show the parent of a compound that is named as a salt. Where two headings read alike, the source gives them in different places.

Target: T1, recombinant full-length USP7 (Homo sapiens, UniProt Q93009)
T1 construct: A 25 μl reaction volume containing recombinant full-length USP7 (62 pM)
Test: USP7-mediated ubiquitin-rhodamine cleavage assay
Format: biochemical
Settings: recombinant full-length USP7 62 pM, ubiquitin-rhodamine 100 nM, 1 hour reaction at room temperature
Method in brief: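 Enzyme 62 pM; HEPES pH 7.3/150 mM NaCl/1 mM TCEP/125 μg/ml BSA; 1% DMSO; 30 min cpd preinc RT; Ub-rhodamine 100 nM, 1 h RT, dark; acetic acid stop; fluorescence; IC50 4-param fit.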

[1] = 30-minute incubation with compound, read-out: Potency: USP7 IC50
[2] = 30-minute pre-incubation, read-out: Potency (USP7 IC50)

T1 sequence (Q93009 whole entry): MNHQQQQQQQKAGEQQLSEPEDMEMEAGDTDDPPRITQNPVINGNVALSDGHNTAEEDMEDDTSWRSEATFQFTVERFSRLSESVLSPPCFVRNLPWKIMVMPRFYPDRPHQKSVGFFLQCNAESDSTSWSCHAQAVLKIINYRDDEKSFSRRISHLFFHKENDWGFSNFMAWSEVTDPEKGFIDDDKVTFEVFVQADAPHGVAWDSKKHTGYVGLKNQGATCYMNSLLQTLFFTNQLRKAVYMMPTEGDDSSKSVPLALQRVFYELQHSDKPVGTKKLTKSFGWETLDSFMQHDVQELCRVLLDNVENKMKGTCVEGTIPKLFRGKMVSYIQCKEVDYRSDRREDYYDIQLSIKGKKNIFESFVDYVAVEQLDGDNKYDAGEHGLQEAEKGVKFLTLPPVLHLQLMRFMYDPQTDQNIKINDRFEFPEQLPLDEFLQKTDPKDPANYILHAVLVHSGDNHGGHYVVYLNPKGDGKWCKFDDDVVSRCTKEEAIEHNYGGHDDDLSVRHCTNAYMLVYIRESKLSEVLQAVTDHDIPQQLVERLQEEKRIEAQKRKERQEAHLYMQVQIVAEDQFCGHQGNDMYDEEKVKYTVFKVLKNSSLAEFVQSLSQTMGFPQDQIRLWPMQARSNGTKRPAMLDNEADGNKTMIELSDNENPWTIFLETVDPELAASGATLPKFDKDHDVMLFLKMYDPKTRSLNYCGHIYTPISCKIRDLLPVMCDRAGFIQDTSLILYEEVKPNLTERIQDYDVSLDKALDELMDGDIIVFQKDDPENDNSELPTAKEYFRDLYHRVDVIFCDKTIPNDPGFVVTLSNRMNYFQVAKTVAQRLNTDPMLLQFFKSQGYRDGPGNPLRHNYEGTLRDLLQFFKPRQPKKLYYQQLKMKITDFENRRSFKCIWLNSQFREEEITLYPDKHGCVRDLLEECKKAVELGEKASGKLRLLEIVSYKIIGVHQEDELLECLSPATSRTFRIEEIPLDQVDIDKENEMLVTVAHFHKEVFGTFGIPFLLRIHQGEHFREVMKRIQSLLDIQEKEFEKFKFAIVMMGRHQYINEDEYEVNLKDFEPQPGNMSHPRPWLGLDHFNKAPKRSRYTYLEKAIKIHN

| IC50 [1] [nM] | IC50 [2] [nM] | SMILES |
| --- | --- | --- |
| < 1000 |  | Cc1cc(Cl)cc(-c2ccnc3cc(CN4C(=O)c5ccncc5C4=O)sc23)c1O[C@H]1CCCNC1 [Example 335, 2-[[7-[5-chloro-3-methyl-2-[[(3S)-3-piperidyl]oxy]phenyl]thieno[3,2-b]pyridin-2-yl]methyl]pyrrolo[3,4-c]pyridine-1,3-dione; 2,2,2-trifluoroacetic acid] |
| < 1000 |  | Cc1cc(Cl)cc(-c2ccnc3cc(CN4C(=O)SC(C)(C)C4=O)sc23)c1O[C@H]1CCCNC1 [Example 295, 3-[[7-[5-chloro-3-methyl-2-[[(3S)-3-piperidyl]oxy]phenyl]thieno[3,2-b]pyridin-2-yl]methyl]-5,5-dimethyl-thiazolidine-2,4-dione; 2,2,2-trifluoroacetic acid] |
| < 1000 |  | Cc1cc(Cl)cc(-c2ncnc3cc(CN4C(=O)CCCC4=O)sc23)c1O[C@@H]1CNC[C@@H]1F [Example 134, 1-((4-(5-Chloro-2-(((3R,4S)-4-fluoropyrrolidin-3-yl)oxy)-3-methylphenyl)thieno[3,2-d]pyrimidin-6-yl)methyl)piperidine-2,6-dione] |
| < 1000 |  | Cc1cc(Cl)cc(-c2ccnc3cc([C@H](C)N4C(=O)CCC4=O)sc23)c1O[C@@H]1CCNC[C@H]1F [Example 289, 1-[(1S)-1-[7-[5-chloro-2-[[(3R,4R)-3-fluoro-4-piperidyl]oxy]-3-methyl-phenyl]thieno[3,2-b]pyridin-2-yl]ethyl]pyrrolidine-2,5-dione; 2,2,2-trifluoroacetic acid] |
| < 1000 |  | Cc1cc(Cl)cc(-c2ccnc3cc(CN4C(=O)CCC4=O)sc23)c1O[C@@H]1CN[C@@H](C)C1 [Example 99, 1-((7-(5-Chloro-3-methyl-2-(((3S,5S)-5-methylpyrrolidin-3-yl)oxy)phenyl)thieno[3,2-b]pyridin-2-yl)methyl)pyrrolidine-2,5-dione] |
| < 1000 |  | Cc1cc(Cl)cc(-c2ccnc3cc(CN4C(=O)C5CCCCN5C4=O)sc23)c1O[C@@H]1CNC[C@@H]1F (stereo partly drawn) [Example 138, 2-((7-(5-Chloro-2-(((3R,4S)-4-fluoropyrrolidin-3-yl)oxy)-3-methylphenyl)thieno[3,2-b]pyridin-2-yl)methyl)tetrahydroimidazo[1,5-a]pyridine-1,3(2H,5H)-dione] |
|  | < 1000 | Cc1cc(Cl)cc(-c2ccnc3cc(Cn4c(=O)c(C)cn(C)c4=O)sc23)c1O[C@@H]1CNC[C@@H]1F [Example 480, 3-[[7-[5-chloro-2-[(3R,4S)-4-fluoropyrrolidin-3-yl]oxy-3-methyl-phenyl]thieno[3,2-b]pyridin-2-yl]methyl]-1,5-dimethyl-pyrimidine-2,4-dione] |
|  | < 1000 | COC[C@H]1C[C@H](Oc2c(C)cc(Cl)cc2-c2ccnc3cc(Cn4c(=O)ccn(CC(F)(F)F)c4=O)sc23)CN1 [Example 650, 3-[[7-[5-chloro-2-[(3S,5R)-5-(methoxymethyl)pyrrolidin-3-yl]oxy-3-methyl-phenyl]thieno[3,2-b]pyridin-2-yl]methyl]-1-(2,2,2-trifluoroethyl)pyrimidine-2,4-dione] |
| < 1000 |  | Cc1cc(Cl)cc(-c2ccnc3cc(CN4C(=O)C5CC5C4=O)sc23)c1O[C@@H]1CCNC[C@H]1F (stereo partly drawn) [Example 293, 3-[[7-[5-chloro-2-[[(3R,4R)-3-fluoro-4-piperidyl]oxy]-3-methyl-phenyl]thieno[3,2-b]pyridin-2-yl]methyl]-3-azabicyclo[3.1.0]hexane-2,4-dione; 2,2,2-trifluoroacetic acid] |
| < 1000 |  | Cc1cc(Cl)cc(-c2ccnc3cc(CN4C(=O)C5CCCN5C4=O)sc23)c1O[C@@H]1CNC[C@@H]1F (stereo partly drawn) [Example 143, 2-((7-(5-Chloro-2-(((3R,4S)-4-fluoropyrrolidin-3-yl)oxy)-3-methylphenyl)thieno[3,2-b]pyridin-2-yl)methyl)tetrahydro-1H-pyrrolo[1,2-c] imidazole-1,3(2H)-dione] |
| 1000 to 10000 |  | CC(=O)N[C@H]1CNC[C@H]1Oc1c(C)cc(Cl)cc1-c1ccnc2cc(CN3C(=O)CCC3=O)sc12 [Example 85, N-((3S,4R)-4-(4-Chloro-2-(2-((2,5-dioxopyrrolidin-1-yl)methyl)thieno[3,2-b]pyridin-7-yl)-6-methylphenoxy)pyrrolidin-3-yl)acetamide] |

Further lines, the compound ahead of its results:

| SMILES | IC50 [1] [nM] | IC50 [2] [nM] |
| --- | --- | --- |
| CCC(O)c1cc2ncnc(-c3cc(Cl)cc(C)c3O[C@H]3CCCNC3)c2s1 (stereo partly drawn) [Example 174, 1-(4-(5-Chloro-3-methyl-2-(((S)-piperidin-3-yl)oxy)phenyl)thieno[3,2-d]pyrimidin-6-yl)propan-1-ol] | 1000 to 10000 |  |
| Cc1cc(Cl)cc(-c2ccnc3cc(CN4C(=O)CCC4=O)sc23)c1OC1CC(N)C1 (stereo not drawn) [Example 438, 1-[[7-[2-(3-aminocyclobutoxy)-5-chloro-3-methyl-phenyl]thieno[3,2-b]pyridin-2-yl]methyl]pyrrolidine-2,5-dione; 2,2,2-trifluoroacetic acid] |  | < 1000 |
| Cc1cc(Cl)cc(-c2ccnc3cc(Cn4c(=O)ccn(CC(F)(F)F)c4=O)sc23)c1O[C@H]1CCNC[C@H]1C [Example 565, 3-[[7-[5-chloro-3-methyl-2-[[(3R,4S)-3-methyl-4-piperidyl]oxy]phenyl]thieno[3,2-b]pyridin-2-yl]methyl]-1-(2,2,2-trifluoroethyl)pyrimidine-2,4-dione] |  | < 1000 |
| OCc1cc2nccc(-c3cc(Cl)cc(C4CC4)c3OCC3CNC3)c2s1 [Example 23, (7-(2-(Azetidin-3-ylmethoxy)-5-chloro-3-cyclopropylphenyl)thieno[3,2-b]pyridin-2-yl)methanol] | 1000 to 10000 |  |
| Cc1cc(Cl)cc(-c2ccnc3cc(Cn4c(=O)ccn(CC(F)(F)F)c4=O)sc23)c1O[C@@H]1CCCN[C@H]1C [Example 622, 3-[[7-[5-chloro-3-methyl-2-[[(2S,3R)-2-methyl-3-piperidyl]oxy]phenyl]thieno[3,2-b]pyridin-2-yl]methyl]-1-(2,2,2-trifluoroethyl)pyrimidine-2,4-dione; 2,2,2-trifluoroacetic acid] |  | < 1000 |
| Cc1cc(Cl)cc(-c2ccnc3cc(Cn4c(=O)ccn(CC(F)(F)F)c4=O)sc23)c1OC1CC2CNC1C2 (stereo not drawn) [Example 540, 3-[[7-[2-(3-azabicyclo[2.2.1]heptan-5-yloxy)-5-chloro-3-methyl-phenyl]thieno[3,2-b]pyridin-2-yl]methyl]-1-(2,2,2-trifluoroethyl)pyrimidine-2,4-dione] |  | < 1000 |
| Cc1cc(Cl)cc(-c2ccnc3cc(Cn4c(=O)ccn(CC(F)(F)F)c4=O)sc23)c1OC1CCNCC1C(F)(F)F (stereo not drawn) [Example 272, 3-((7-(5-Chloro-3-methyl-2-((3-(trifluoromethyl)piperidin-4-yl)oxy)phenyl)thieno[3,2-b]pyridin-2-yl)methyl)-1-(2,2,2-trifluoroethyl)pyrimidine-2,4(1H,3H)-dione] | < 1000 |  |
| Cc1cc(Cl)cc(-c2ncnc3cc(Cn4c(=O)ccn(CC(F)(F)F)c4=O)sc23)c1O[C@H]1CCCNCC1 [Example 580, 3-[[4-[2-[(4S)-azepan-4-yl]oxy-5-chloro-3-methyl-phenyl]thieno[3,2-d]pyrimidin-6-yl]methyl]-1-(2,2,2-trifluoroethyl)pyrimidine-2,4-dione; 2,2,2-trifluoroacetic acid] |  | < 1000 |
| Cc1cc(Cl)cc(-c2ncnc3cc(Cn4c(=O)c(F)cn(CC(F)(F)F)c4=O)sc23)c1O[C@H]1CCCNC1 [Example 556, 3-[[4-[5-chloro-3-methyl-2-[[(3S)-3-piperidyl]oxy]phenyl]thieno[3,2-d]pyrimidin-6-yl]methyl]-5-fluoro-1-(2,2,2-trifluoroethyl)pyrimidine-2,4-dione] |  | < 1000 |
| Cc1cc(Cl)cc(-c2ccnc3cc(CN4C(=O)C5C(C4=O)C5(C)C)sc23)c1OC1CN2CCC1CC2 (stereo not drawn) [Example 316, 3-[[7-(5-chloro-3-methyl-2-quinuclidin-3-yloxy-phenyl)thieno[3,2-b]pyridin-2-yl]methyl]-6,6-dimethyl-3-azabicyclo[3.1.0]hexane-2,4-dione; 2,2,2-trifluoroacetic acid] | < 1000 |  |
| CC(Oc1ccc(Cl)cc1-c1ccnc2cc(CO)sc12)C1CNC1 (stereo not drawn) [Example 42, (7-(2-(1-(Azetidin-3-yl)ethoxy)-5-chlorophenyl)thieno[3,2-b]pyridin-2-yl)methanol] | 10000 to 30000 |  |
| Cc1cc(Cl)cc(-c2ccnc3ccsc23)c1OC1CCN(C)CC1 [Example 187, 7-(5-Chloro-3-methyl-2-((1-methylpiperidin-4-yl)oxy)phenyl)thieno[3,2-b]pyridine] | 10000 to 30000 |  |
| Cc1cc(Cl)cc(-c2ncnc3cc(CN4C(=O)C5CC5C4=O)sc23)c1O[C@H]1CCCNC1 (stereo partly drawn) [Example 245, 3-((4-(5-Chloro-3-methyl-2-(((S)-piperidin-3-yl)oxy)phenyl)thieno[3,2-d]pyrimidin-6-yl)methyl)-3-azabicyclo[3.1.0]hexane-2,4-dione] | < 1000 |  |
| CCN1CC(Oc2c(C)cc(Cl)cc2-c2ccnc3cc(CN4C(=O)C5C(C4=O)C5(C)C)sc23)C(C)(F)C1 (stereo not drawn) [Example 374, 3-[[7-[5-chloro-2-(1-ethyl-4-fluoro-4-methyl-pyrrolidin-3-yl)oxy-3-methyl-phenyl]thieno[3,2-b]pyridin-2-yl]methyl]-6,6-dimethyl-3-azabicyclo[3.1.0]hexane-2,4-dione dihydrochloride] | < 1000 |  |
| Cc1cc(Cl)cc(-c2ncnc3cc(CN4C(=O)C5C(C4=O)C5(C)C)sc23)c1O[C@H]1CC[C@H](C)NC1 (stereo partly drawn) [Example 339, 3-[[4-[5-chloro-3-methyl-2-[[(3S,6S)-6-methyl-3-piperidyl]oxy]phenyl]thieno[3,2-d]pyrimidin-6-yl]methyl]-6,6-dimethyl-3-azabicyclo[3.1.0]hexane-2,4-dione dihydrochloride] | < 1000 |  |
| Cc1cc(Cl)cc(-c2ccnc3cc(Cn4c(=O)ccn(CC(F)(F)F)c4=O)sc23)c1O[C@H]1CCCN(C(=O)C(F)(F)F)C1 [Example 659, 3-[[7-[5-chloro-3-methyl-2-[[(3S)-1-(2,2,-trifluoroacetyl)-3-piperidyl]oxy]phenyl]thieno[3,2-b]pyridin-2-yl]methyl]-1-(2,2,2-trifluoroethyl)pyrimidine-2,4-dione] |  | < 1000 |
